Like-named read-outs stand apart in the source and are kept apart here.
Test system: MCF-7 cells
Experiment: In vitro test of cell activity (MCF-7 cells, insulin stimulation, ELISA-One fluorescence)
Assay type: cell-based
Conditions: for inhibition at 0.5 µM: conc. 0.5 μM; for inhibition at 1 µM: conc. 1 μM; for inhibition at 0.25 µM: conc. 0.25 μM
Procedure, shortened: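 Fluorescence ELISA-One read-out on cell lysates, antibody-captured 1 h at room temperature. Before lysis, MCF-7 cells (2.5×10^4/well) were pretreated 2 h with compound in serum-free medium, single dose for screening or a dilution series for IC50, then stimulated 30 min with insulin ([…] final).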

[1] = Homo sapiens, MCF7, MCF-7 cells, read-out: % inhibition AKT
[2] = Homo sapiens, MCF7, MCF-7 cells, read-out: % inhibition p70s6k
[3] = Homo sapiens, MCF7, MCF-7 cells, read-out: IC50 p-AKT
[4] = Homo sapiens, MCF7, MCF-7 cells, read-out: IC50 p-p70S6K

| Structure (SMILES) | IC50 [3] [nM] | IC50 [4] [nM] | inhibition at 0.5 µM [1] [%] | inhibition at 0.5 µM [2] [%] | other results |
| --- | --- | --- | --- | --- | --- |
| COc1ncc(-c2ccc3nccc(=O)n3c2C)cc1NS(=O)(=O)c1ccc(F)cc1F [compound 52, 2,4-difluoro-N-(2-methoxy-5-(6-methyl-4-oxo-4H-pyrido[1,2-a]pyrimidin-7-yl)pyridin-3-yl)benzsulfamide] | – | – | 69.3 | 50.3 | – |
| COc1ncc(-c2ccc3nccc(=O)n3c2C)cc1NS(=O)(=O)c1ccccc1F [compound 55] | – | – | 65.7 | 42.3 | – |
| COc1ncc(-c2ccc3nc(C)cc(=O)n3c2)cc1NS(=O)(=O)c1ccc(F)cc1C [compound 229] | – | – | 31.7 | 1.4 | – |
| COc1ncc(-c2ccc3ncc(OCCOC4CC4)c(=O)n3c2)cc1NS(=O)(=O)c1sc(C)nc1C [compound 204] | ≤ 50 | – | – | – | – |
| COCCOCCOc1cnc2ccc(-c3cnc(OC)c(NS(=O)(=O)c4sc(C)nc4C)c3)cn2c1=O [compound 191] | ≤ 50 | – | – | – | – |
| COCCOc1cnc2ccc(-c3cnc(OC)c(NS(=O)(=O)c4sc(N(C)C)nc4C)c3)cn2c1=O [compound 193] | ≤ 50 | – | – | – | – |
| COc1ncc(-c2ccc3ncc(OCC4CCOCC4)c(=O)n3c2)cc1NS(=O)(=O)c1sc(C)nc1C [compound 198] | ≤ 50 | – | – | – | – |
| COc1ncc(-c2cn3c(=O)ccnc3cn2)cc1NS(=O)(=O)c1cc(F)ccc1F [compound 41] | – | – | -10.1 | 0.1 | – |
| COc1ncc(-c2ccc3nccc(=O)n3c2)cc1NS(=O)(=O)c1ccc(Cl)cc1F [compound 27] | – | – | – | – | inhibition at 1 µM [1]: 94.8%; inhibition at 1 µM [2]: 93.5% |
| COc1ncc(-c2ccc3nccc(=O)n3c2)cc1CS(=O)(=O)c1ccc(F)cc1F [compound 5] | – | – | – | – | inhibition at 1 µM [1]: 26%; inhibition at 1 µM [2]: 12.3% |
| COCOCCOc1cnc2ccc(-c3cnc(OC)c(NS(=O)(=O)c4sc(C)nc4C)c3)cn2c1=O [compound 188] | ≤ 50 | – | – | – | – |
| COc1ncc(-c2ccc3ncc(Cl)c(=O)n3c2)cc1NS(=O)(=O)c1[nH]c(C)nc1C [compound 165] | – | – | – | – | inhibition at 0.25 µM [1]: 49.5%; inhibition at 0.25 µM [2]: 63.7% |
| COc1ncc(-c2ccc3ncc(OCCOCC(F)(F)F)c(=O)n3c2)cc1NS(=O)(=O)c1sc(C)nc1C [compound 202] | ≤ 50 | – | – | – | – |
| COc1ncc(-c2ccc3nccc(=O)n3c2C)cc1NS(=O)(=O)c1ccc(F)cc1C [compound 57] | – | – | 58.6 | 47.2 | – |
| COc1ncc(-c2ccc3nccc(=O)n3n2)cc1NS(=O)(=O)c1cccc(F)c1 [compound 79] | – | – | 63.3 | 15.9 | – |
| COc1ncc(-c2ccc3nccc(=O)n3n2)cc1NS(=O)(=O)c1ccccc1Cl [compound 74] | – | – | 74.1 | 26 | – |
| CCOc1ncc(-c2ccc3nccc(=O)n3c2)cc1NS(=O)(=O)c1ccc(F)cc1F [compound 15] | – | – | – | – | inhibition at 1 µM [1]: 93.3%; inhibition at 1 µM [2]: 91.7% |
| COc1ncc(-c2ccc3ncc(OC4CCC(OC)CC4)c(=O)n3c2)cc1NS(=O)(=O)c1sc(C)nc1C (stereo not drawn) [compound 207] | 50 to 100 | – | – | – | – |
| COc1ncc(-c2ccc3ncc(-n4ccc(C)n4)c(=O)n3c2)cc1NS(=O)(=O)c1ccc(F)cc1Cl [compound 219] | – | – | – | – | inhibition at 0.25 µM [1]: 41.7%; inhibition at 0.25 µM [2]: 13.4% |
| COc1ncc(-c2cn3c(=O)ccnc3cc2C)cc1NS(=O)(=O)c1ccc(C#N)cc1 [compound 129] | – | – | -24.2 | 1.2 | – |
| COc1ncc(-c2ccc3nccc(=O)n3c2C)cc1NS(=O)(=O)c1ccc(C#N)cc1 [compound 59] | – | – | 59.7 | 26.5 | – |
| COc1ncc(-c2ccc3nccc(=O)n3n2)cc1NS(=O)(=O)c1ccc(C#N)cc1 [compound 77] | – | – | 50 | 4.8 | – |
| COc1ncc(-c2ccc3ncc(OC4CCC(OC)CC4)c(=O)n3c2)cc1NS(=O)(=O)c1sc(C)nc1C (stereo not drawn) [compound 208] | – | – | – | – | IC50 (MCF-7 cells, read-out: IC50 p-AKT): ≤ 50 nM |

Second part, led by results:

| IC50 [3] [nM] | IC50 [4] [nM] | Structure (SMILES) | inhibition at 0.5 µM [1] [%] | inhibition at 0.5 µM [2] [%] | other results |
| --- | --- | --- | --- | --- | --- |
| ≤ 50 | 50 to 100 | COc1ncc(-c2ccc3ncc(Cl)c(=O)n3c2)cc1NS(=O)(=O)c1cc(F)ccc1F [compound 139] | 93.7 | 88.5 | – |
| > 250 | – | COc1ncc(-c2ccc3nn(C)c(=O)n3c2)cc1NS(=O)(=O)c1ccc(F)cc1F [compound 234] | – | – | – |
| 50 to 100 | – | COCCOc1cnc2ccc(-c3cnc(OC)c(NS(=O)(=O)c4ccccc4F)c3)cn2c1=O [compound 254] | – | – | – |
| ≤ 50 | – | COc1ncc(-c2ccc3ncc(Cl)c(=O)n3c2)cc1NS(=O)(=O)c1ccc(C)nc1C [compound 169] | – | – | – |
| ≤ 50 | 100 to 250 | COc1ncc(-c2ccc3nccc(=O)n3c2)cc1NS(=O)(=O)c1cc(F)ccc1F [compound 4] | – | – | inhibition at 1 µM [1]: 95.6%; inhibition at 1 µM [2]: 50.8% |
| ≤ 50 | – | COc1ncc(-c2ccc3ncc(OCCO)c(=O)n3c2)cc1NS(=O)(=O)c1sc(C)nc1C [compound 180] | – | – | – |
| ≤ 50 | 100 to 250 | CCOc1cnc2ccc(-c3cnc(OC)c(NS(=O)(=O)c4ccc(F)cc4Cl)c3)cn2c1=O [compound 172] | – | – | inhibition at 0.25 µM [1]: 83.5%; inhibition at 0.25 µM [2]: 74.4% |
| ≤ 50 | 100 to 250 | COc1ncc(-c2ccc3nccc(=O)n3c2)cc1NS(=O)(=O)c1sccc1C [compound 37] | 95.8 | 90.3 | – |
| ≤ 50 | 50 to 100 | COc1ncc(-c2ccc3ncc(OC)c(=O)n3c2)cc1NS(=O)(=O)c1ccccc1F [compound 107] | 94.5 | 91 | – |
| 50 to 100 | – | COc1ncc(-c2ccc3nc(N)cc(=O)n3c2)cc1NS(=O)(=O)c1sc(C)nc1C [compound 236, N-(5-(2-amino-4-oxo-4H-pyrido[1,2-a]pyrimidin-7-yl)-2-methoxypyridin-3-yl)-2,4-dimethylthiazolyl-5-sulfamide] | – | – | – |
| 50 to 100 | – | COc1ncc(-c2ccc3ncc(OCC4COC4)c(=O)n3c2)cc1NS(=O)(=O)c1cccc(C)c1 [compound 248] | – | – | – |
| ≤ 50 | – | COCCOc1cnc2ccc(-c3cnc(OC)c(NS(=O)(=O)c4ccc(F)cc4C(F)(F)F)c3)cn2c1=O [compound 278] | – | – | – |
| 50 to 100 | 50 to 100 | COc1ncc(-c2ccc3ncc(Cl)c(=O)n3c2)cc1NS(=O)(=O)c1c(F)cccc1F [compound 148] | – | – | inhibition at 0.25 µM [1]: 88.9%; inhibition at 0.25 µM [2]: 86.3% |
| 50 to 100 | 50 to 100 | COc1ncc(-c2ccc3ncc(F)c(=O)n3c2)cc1NS(=O)(=O)c1ccc(C#N)cc1 [compound 70] | 75.4 | 99 | – |
| ≤ 50 | – | COCCOc1cnc2ccc(-c3cnc(OC)c(NS(=O)(=O)c4sc(OC)nc4C)c3)cn2c1=O [compound 195] | – | – | – |
| ≤ 50 | 100 to 250 | COc1ncc(-c2ccc3ncc(Cl)c(=O)n3c2)cc1NS(=O)(=O)c1ccc(F)c(F)c1 [compound 145] | 94.9 | 90.5 | – |
| 100 to 250 | 100 to 250 | COc1ncc(-c2ccc3ncc(-n4ccc(C)n4)c(=O)n3c2)cc1NS(=O)(=O)c1sc(C)nc1C [compound 218] | – | – | inhibition at 0.25 µM [1]: 85.2%; inhibition at 0.25 µM [2]: 85% |
| 50 to 100 | 100 to 250 | COc1ncc(-c2ccc3ncc(Cl)c(=O)n3c2)cc1NS(=O)(=O)c1cnc(C)s1 [compound 156] | – | – | inhibition at 0.25 µM [1]: 77.9%; inhibition at 0.25 µM [2]: 74.1% |
| ≤ 50 | 100 to 250 | COc1ncc(-c2ccc3nccc(=O)n3c2)cc1NS(=O)(=O)c1ccccc1C [compound 20] | – | – | inhibition at 1 µM [1]: 93.8%; inhibition at 1 µM [2]: 89.9% |
| ≤ 50 | ≤ 50 | COc1ncc(-c2ccc3ncc(Cl)c(=O)n3c2)cc1NS(=O)(=O)c1sccc1C [compound 143] | 95.7 | 87.7 | – |
| 50 to 100 | – | COc1ncc(-c2ccc3ncc(OC)c(=O)n3c2)cc1NS(=O)(=O)c1sccc1C [compound 110] | – | – | – |
| 50 to 100 | 100 to 250 | COc1ncc(-c2ccc3nccc(=O)n3c2)cc1NS(=O)(=O)c1ccc(F)cc1 [compound 11] | – | – | inhibition at 1 µM [1]: 94.7%; inhibition at 1 µM [2]: 52.3% |
| ≤ 50 | – | CCc1cc(F)ccc1S(=O)(=O)Nc1cc(-c2ccc3ncc(OCCOC)c(=O)n3c2)cnc1OC [compound 280] | – | – | – |
| ≤ 50 | – | COc1ncc(-c2ccc3ncc(N)c(=O)n3c2)cc1NS(=O)(=O)c1sc(N)nc1C [compound 94] | – | – | – |
| 50 to 100 | – | COc1ncc(-c2ccc3ncc(OCCO)c(=O)n3c2)cc1NS(=O)(=O)c1ccc(F)cc1F [compound 178] | – | – | – |
| ≤ 50 | 50 to 100 | COc1ncc(-c2ccc3nccc(=O)n3c2)cc1NS(=O)(=O)c1sccc1Cl [compound 34] | 97 | 95.6 | – |
| ≤ 50 | 50 to 100 | COc1ncc(-c2ccc3ncc(Cl)c(=O)n3c2)cc1NS(=O)(=O)c1cccc(C)c1 [compound 140] | 94.8 | 90.5 | – |
| ≤ 50 | ≤ 50 | COCCOc1cnc2ccc(-c3cnc(OC)c(NS(=O)(=O)c4sc(C)nc4C)c3)cn2c1=O [compound 176] | – | – | – |
| 50 to 100 | 100 to 250 | COc1ncc(-c2ccc3nccc(=O)n3c2)cc1NS(=O)(=O)c1ccccc1 [compound 12] | – | – | inhibition at 1 µM [1]: 95.4%; inhibition at 1 µM [2]: 91.5% |
| ≤ 50 | 50 to 100 | COc1ncc(-c2ccc3ncc(N)c(=O)n3c2)cc1NS(=O)(=O)c1ccccc1Cl [compound 91] | 94.6 | 89.2 | – |

Source: patent US9868737B2, “Pyridino[1,2-A]pyrimidone analogue used as MTOR/P13K inhibitor” (CISEN PHARMACEUTICAL CO., LTD., priority 2014, dated 2018)
